# Measurements taken from paper PMC5061317, “Transactivation Assays to Assess Canine and Rodent Pregnane X Receptor (PXR) and Constitutive Androstane Receptor (CAR) Activation” (PLoS ONE, 2016).
# Values joined by “and” are separate entries in the source; they are usually repeats but may differ in a detail not shown here. Equal values may be shown once. Where a name gives a salt, the structure may show the parent alone.
# Key:
# [1] = target: T1, rat CAR3 (Rattus norvegicus, UniProt Q9QUS1, INS280APYLT); test: Rat CAR3 transactivation assay with CYP2B6 promoter/enhancer reporter (rCAR3/2B6); assay type: cell-based; conditions: 10 μM, 48 h, above DMSO treated cells, mean ± SE
# T1 construct: expressed in transfected cells; host or cells: HepG2 (transient transfection)
# T1 sequence (Q9QUS1 with tags, fused parts or gaps INS280APYLT): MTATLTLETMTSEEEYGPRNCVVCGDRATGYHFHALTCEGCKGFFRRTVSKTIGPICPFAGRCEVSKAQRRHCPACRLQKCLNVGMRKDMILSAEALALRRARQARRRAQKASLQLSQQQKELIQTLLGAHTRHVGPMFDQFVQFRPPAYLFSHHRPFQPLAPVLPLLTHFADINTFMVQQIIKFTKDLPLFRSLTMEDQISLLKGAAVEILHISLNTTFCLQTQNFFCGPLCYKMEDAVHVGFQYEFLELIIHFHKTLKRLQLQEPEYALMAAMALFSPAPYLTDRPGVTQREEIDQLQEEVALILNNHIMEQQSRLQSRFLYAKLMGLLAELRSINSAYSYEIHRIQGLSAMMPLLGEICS
# T1 sequence (P19793 1-462 partner): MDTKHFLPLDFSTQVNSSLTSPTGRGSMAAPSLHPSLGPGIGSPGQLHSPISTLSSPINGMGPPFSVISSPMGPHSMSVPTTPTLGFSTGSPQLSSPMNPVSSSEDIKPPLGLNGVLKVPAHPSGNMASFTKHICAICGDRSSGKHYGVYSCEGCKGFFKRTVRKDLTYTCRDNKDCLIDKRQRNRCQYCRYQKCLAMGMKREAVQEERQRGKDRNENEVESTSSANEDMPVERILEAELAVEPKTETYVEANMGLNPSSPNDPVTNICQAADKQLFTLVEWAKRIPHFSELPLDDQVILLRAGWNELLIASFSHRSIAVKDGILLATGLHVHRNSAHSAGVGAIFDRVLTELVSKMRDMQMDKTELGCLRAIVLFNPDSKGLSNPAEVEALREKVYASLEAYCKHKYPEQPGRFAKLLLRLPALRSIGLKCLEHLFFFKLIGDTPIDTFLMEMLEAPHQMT
# Protocol: (§1) To construct an expression vector harboring canine CAR3, reference CAR sequence (CAR1) for canine (Accession number: FJ202015) was amplified from C. familiaris liver cDNA. PCR conditions were 98°C for 2 min, 30 cycles of 98°C for 30 sec and 72°C for 1 min, followed by 72°C for 7 min and cooling to 4°C. The resulting PCR product was cloned into the pCR2.1 vector for sequence analysis and subsequently cloned into a pCDNA 3.1 expression vector (Life Technologies, Carlsbad, CA). […] Canine CAR1 was mutated to obtain CAR3 by introducing […] motif. This was performed using forward primer: 5’- […] -3’ and reverse primer: 5’- […] -3’ in concert with QuikChange Lightning mutagenesis kit (Agilent) according to manufacturer’s instructions. The presence of correct canine CAR3 was verified by sequence analysis. […]
# (§2) Assessment of cell viability and transcriptional activation was performed in the same wells using the CellTiter-Fluor cell viability assay and ONE-Glo Luciferase assay. Fluorescence was determined on a BioTek Synergy 2 Luminometer (BioTek Instruments, Winooski, VT) with excitation at 400 nm and emission at 510 nm. Following viability determination luminescence was monitored.
# (§3) Fluorescent light units were utilized to normalize for viable cell number in the luciferase (transcriptional activation) assay and expressed as the average of three determinations/chemical agent and concentration. […]
# [2] = target: T1, rat CAR3; test: Rat CAR3 transactivation assay with CYP3A4 promoter/enhancer reporter (rCAR3/3A4); assay type: cell-based; conditions: 10 μM, 48 h, above DMSO treated cells, mean ± SE
# Protocol: as §1, §2, §3
# [3] = tested on: canine PXR; test: Canine PXR transactivation assay (HepG2 transiently transfected, CYP3A4 luciferase reporter); conditions: 48 h
# Protocol: To generate canine PXR (Accession number: XM_535750.3) with a start codon replicating that of human PXR (Accession number: AY091855), a Canis lupus familiaris liver cDNA was employed as the template. PCR conditions were 98°C for 2 min, 35 cycles of 98°C for 1 min, 59°C for 1 min and 72°C for 1 min 45 sec, followed by 72°C for 7 min and cooling to 4°C.
# (§4) HepG2 cells were seeded in 10-cm cell culture dishes and incubated until 60–70% confluency (about 5 days). For transfections, dishes were rinsed with phosphate buffered saline (PBS) and cells incubated for 1–4 h in OptiMEM (Life Technologies). LipofectAMINE 2000 (Life Technologies) was used at a 2:1 ratio (μl of transfection reagent to μg of DNA). For transfections involving canine and rat CAR3, 24 μg of total DNA was used (9 μg of luciferase reporter construct, 7.5 μg of either empty expression vector or CAR expression construct and 7.5 μg of the hRXRα construct). For transfections with the canine PXR, 21 μg of total DNA was employed (12 μg of luciferase reporter containing CYP3A4 proximal and distal enhancers and 9 μg of either empty expression vector or plasmid containing canine PXR). Transfected HepG2 cells were incubated at 37°C, 5% CO2 for 19–24 h. The cells were then trypsinized with TrypLE Express solution (Life Technologies) and either frozen in the presence of 10% DMSO for future use or seeded into clear bottom 96-well assay plate at a density of 5x10^4 cells/well and incubated at 37°C, 5% CO2 for 24 h.
# (§5) For luciferase reporter assays involving transient transfectants, either freshly transfected cells or cells that have been stored in liquid N2 were seeded in 96-well plates as described above. For the rPXR stable cell line, cells were seeded into a 96-well plate at a density of 2x10^4 cells/well. Following a 24 h recovery, transiently transfected cells or stably integrated rat PXR cells were treated with various chemicals dissolved in DMSO in triplicate wells. Phenobarbital was the only compound that was dissolved in sterile water. […] All treatments were performed for 48 h.
# as §2
# (§6) Fluorescent light units were utilized to normalize for viable cell number in the luciferase (transcriptional activation) assay and expressed as the average of three determinations/chemical agent and concentration. The average luminescent units were divided by the average for solvent control to determine the fold activation. Data is expressed as mean ± standard error (SE) of three separate experiments performed in triplicate. The data was further normalized by dividing the values for each chemical by values obtained from assays with empty expression vector control. One-way multiple comparison ANOVA test in concert with Uncorrected Fisher’s LSD posttest was used to compare treatment groups with the negative controls. The significance threshold was set at p < 0.01. All statistical analyses were performed using Prism V6.0c (GraphPad, San Diego, CA). To determine receptor activation kinetics for positive controls, EC50 and EMAX values were calculated using nonlinear regression analysis of typical log dose-response curves using Prism V6.0c (GraphPad, San Diego, CA).
# [4] = target: T2, rat PXR (Rattus norvegicus, UniProt Q9R1A7); test: Rat PXR transactivation assay (rPXR stable cell line, CYP3A4 luciferase reporter); conditions: 48 h
# T2 sequence (Q9R1A7 1-431): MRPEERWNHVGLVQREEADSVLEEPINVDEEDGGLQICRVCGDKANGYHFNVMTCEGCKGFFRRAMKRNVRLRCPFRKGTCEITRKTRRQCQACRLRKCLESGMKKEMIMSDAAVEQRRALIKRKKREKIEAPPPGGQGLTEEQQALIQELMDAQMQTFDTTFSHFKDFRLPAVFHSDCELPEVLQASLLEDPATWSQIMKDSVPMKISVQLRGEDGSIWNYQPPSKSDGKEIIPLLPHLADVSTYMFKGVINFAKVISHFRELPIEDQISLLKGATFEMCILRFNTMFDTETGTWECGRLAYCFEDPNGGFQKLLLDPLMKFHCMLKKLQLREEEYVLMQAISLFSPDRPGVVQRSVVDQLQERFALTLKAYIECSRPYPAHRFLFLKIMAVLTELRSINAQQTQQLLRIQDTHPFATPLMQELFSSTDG
# Protocol: Human hepatoma cell line, HepG2 was obtained from American Type Culture Collection (Rockville, MD) and maintained in DMEM supplemented with 10% FBS, 100 U/ml penicillin and 100 μg /ml streptomycin at 37°C, 5% CO2. The stable cell line, rPXR, harboring rat PXR and the CYP3A4 promoter and enhancer linked to luciferase was produced and maintained as described previously.
# as §5, §2, §6
# [5] = target: canine CAR3 (Canis lupus familiaris, UniProt B6E443, INS263APYLT); conditions: 10 μM, 48 h, above DMSO treated cells, mean ± SE
# canine CAR3, sequence (B6E443 entry or part of it INS263APYLT, one chain of several): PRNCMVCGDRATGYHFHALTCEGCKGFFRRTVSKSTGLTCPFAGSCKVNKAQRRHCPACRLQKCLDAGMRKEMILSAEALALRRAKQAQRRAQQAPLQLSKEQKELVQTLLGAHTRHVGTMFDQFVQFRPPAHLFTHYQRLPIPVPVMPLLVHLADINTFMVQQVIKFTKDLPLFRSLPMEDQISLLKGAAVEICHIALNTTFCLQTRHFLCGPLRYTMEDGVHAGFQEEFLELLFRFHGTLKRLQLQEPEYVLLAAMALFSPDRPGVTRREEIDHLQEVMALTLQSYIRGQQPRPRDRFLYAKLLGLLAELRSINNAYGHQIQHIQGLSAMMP
# Protocol: To construct an expression vector harboring canine CAR3, reference CAR sequence (CAR1) for canine (Accession number: FJ202015) was amplified from C. familiaris liver cDNA. PCR conditions were 98°C for 2 min, 30 cycles of 98°C for 30 sec and 72°C for 1 min, followed by 72°C for 7 min and cooling to 4°C. The resulting PCR product was cloned into the pCR2.1 vector for sequence analysis and subsequently cloned into a pCDNA 3.1 expression vector (Life Technologies, Carlsbad, CA). […] Canine CAR1 was mutated to obtain CAR3 by introducing […] motif. This was performed using forward primer: 5’- […] -3’ and reverse primer: 5’- […] -3’ in concert with QuikChange Lightning mutagenesis kit (Agilent) according to manufacturer’s instructions. The presence of correct canine CAR3 was verified by sequence analysis. CYP2B6 luciferase reporter vector containing the XREM-PBREM promoter and enhancer was obtained from Dr. Omiecinski (Penn State University) and has been described previously. To generate rat CAR3, a plasmid containing reference CAR (CAR1) underwent mutagenesis as described above using 5’- […] -3’ as the forward primer and 5’- […] -3’ as the reverse primer. […] Firefly luciferase reporter construct harboring CYP3A4 proximal and distal enhancer regions has been described earlier.
# as §4, with “The cells were then trypsinized with TrypLE Express solution (Life Technologies) and either frozen in the presence of 10% DMSO for future use or seeded into clear bottom 96-well assay plate at a density of 5x10^4 cells/well and incubated at 37°C, 5% CO2 for 24 h.” left out
# as §2, §3
# [6] = 10 μM, above DMSO treated cells, mean ± SE
# [7] = 100 μM, above DMSO treated cells, mean ± SE
# [8] = panel of 19 compounds, concentration not given
smiles,measurement,setting,value
"O=c1cc(-c2ccccc2)oc2c1ccc1ccccc12 [ANF, α-naphthoflavone]","Rat CAR3 Fold Activation, CYP2B6 promoter and enhancer",[1],3.4 ± 0.8 fold and 3.4 ± 0.8^c fold
same,"Rat CAR3 Fold Activation, CYP3A4 promoter and enhancer",[2],negligible effect
"Clc1ccc(-c2nc3sccn3c2C=NOCc2ccc(Cl)c(Cl)c2)cc1 [CITCO, 6-(4-Chlorophenyl)imidazo[2,1-b][1,3]thiazole-5-carbaldehyde O-(3,4-dichlorobenzyl)oxime]",Canine PXR Fold Activation,[3]; [6],5.4 ± 2.1 fold
"CCCCC(CC)COC(=O)c1ccccc1C(=O)OCC(CC)CCCC (stereo not shown) [DEHP, bis (2-ethylhexyl) phthalate]",Rat PXR Fold Activation,[4]; [6],-
same,"Canine CAR3 Fold Activation, CYP2B6 promoter and enhancer",[5],4.3 ± 0.8 fold and 4.3 ± 0.8^c fold
same,"Canine CAR3 Fold Activation, CYP3A4 promoter and enhancer",[5],significant activation only when the CYP2B6 promoter was used
"O=C1Nc2ccc(Cl)cc2[C@@](C#CC2CC2)(C(F)(F)F)O1 [Efavirenz, efavirenz]","Rat CAR3 Fold Activation, CYP2B6 promoter and enhancer",[1],3.9 ± 0.6 fold
same,Rat PXR Fold Activation,"[4]; rat, 10 μM",7.5 ± 2.3 fold
same,"Rat CAR3 Fold Activation, CYP3A4 promoter and enhancer",[2],7.4 ± 3.3 fold
"C=C[C@@]1(C)CC(=O)[C@]2(O)[C@@]3(C)[C@@H](O)CCC(C)(C)[C@@H]3[C@H](O)[C@H](OC(C)=O)[C@@]2(C)O1 [Forskolin, forskolin]",Rat PXR Fold Activation,"[4]; rat, 10 μM",5.8 ± 0.5 fold
same,Canine PXR Fold Activation,[3]; [6],5.6 ± 1.4 fold
"COc1ccc2[nH]c([S+]([O-])Cc3ncc(C)c(OC)c3C)nc2c1 (stereo not shown) [Omeprazole, omeprazole]",Rat PXR Fold Activation,"[4]; rat, 100 μM",9.8 ± 0.9 fold
same,Canine PXR Fold Activation,[3]; [7],9.6 ± 1.3 fold
"CCC1(c2ccccc2)C(=O)NC(=O)NC1=O [Phenobarbital, phenobarbital sodium salt]",Rat PXR activation,"[4]; 1 mM, vehicle water",failed to elicit significant activation
same,Rat PXR activation,[4]; [8],failed to elicit a significant activation
same,Canine PXR Fold Activation,[3]; [8],failed to elicit a significant activation
"CC(=O)[C@H]1[C@H](C#N)C[C@H]2[C@@H]3CC=C4C[C@@H](O)CC[C@]4(C)[C@H]3CC[C@@]21C [Pregnenolone 16α carbonitrile, pregnenolone-16 α -carbonitrile]","Emax, rat PXR activation","[4]; dose-response curve, above 0.1% DMSO",11.4 fold
same,EC50,"[4]; read-out: EC50, rat PXR activation, dose-response curve, nonlinear regression",140 nM
"CCOP(=O)(OCC)C(=Cc1cc(C(C)(C)C)c(O)c(C(C)(C)C)c1)P(=O)(OCC)OCC [SR12813, tetraethyl 2-(3,5-di-tert-butyl-4-hydroxyphenyl)ethenyl-1,1-bisphosphonate]",Rat PXR Fold Activation,[4]; [6],6.1 ± 0.6 fold
same,Canine PXR Fold Activation,[3]; [6],60.1 ± 3.1 fold
same,"Emax, canine PXR activation","[3]; dose-response 0.1 to 30 μM, above 0.1% DMSO",60.3 ± 5.5 fold and 60.3 fold
same,EC50,"[3]; read-out: EC50, canine PXR activation, dose-response 0.1 to 30 μM, nonlinear regression",1900 ± 200 nM
same,"Canine CAR3 Fold Activation, CYP2B6 promoter and enhancer",[5],activation only in the presence of the CYP3A4 promoter
same,"Canine CAR3 Fold Activation, CYP3A4 promoter and enhancer",[5],3.1 ± 0.7 fold and 3.1 ± 0.7^d fold
"Clc1cnc(Oc2ccc(Oc3ncc(Cl)cc3Cl)cc2)c(Cl)c1 [TCPOBOP, 1,4-Bis-[2-(3,5-dichloropyridyloxy)]benzene, 3,3′,5,5′-Tetrachloro-1,4-bis(pyridyloxy)benzene]",Rat PXR Fold Activation,[4]; [6],failed to elicit significant activation
O=C1NC(=O)C(c2ccccc2)(c2ccccc2)N1 [phenytoin],Rat PXR Fold Activation,[4]; [7],failed to elicit significant activation
same,Rat PXR activation,[4]; [8],failed to elicit a significant activation
same,Canine PXR Fold Activation,[3]; [8],failed to elicit a significant activation
